Assay results published in PMC7613620, “Reaction hijacking of tyrosine tRNA synthetase as a whole-of-life-cycle antimalarial strategy” (Science (New York, N.Y.), 2022).

Experiments:
[1] = system: P. falciparum NF54 liver stage parasites; assay: P. falciparum NF54 schizont development in primary human hepatocytes; format: cell-based; conditions: Plasmodium falciparum, NF54, Hepatocyte, 96 h
[2] = system: P. falciparum 3D7 clones selected with ML901 (D4, F7, B11); assay: In vitro evolved ML901-resistant 3D7 clones, IC50_72h; format: cell-based, Plasmodium falciparum
Method: 537 Screening of nucleoside sulfamates for inhibition of the growth of cultures of P. falciparum (3D7).
538 High throughput screening of compounds from the Takeda library was performed by SCYNEXIS, Inc.
539 Jersey City, NJ, USA. Synchronized (5% sorbitol) ring stage parasites (3D7 strain; 1.5% haematocrit; 0.1
540 – 0.5% starting parasitemia) were incubated in 96-well plates, in triplicate, diluted in DMSO, for 72 h in
541 RPMI 1640 supplemented with 10% human serum, 5% CO2, 5% O2, 90% N2. Infected RBCs were lysed
542 with 10 mM Tris HCl, 5 mM EDTA, 0.008% saponin, 0.08% Triton X-100, pH 7.5, containing SYBR
543 Green. Following incubation for 15-60 min, fluorescence signal was assessed. Sigmoidal dose response
544 curves were generated and the IC50 values determined using CLfit curve fitting software from IDBS […]
549 stage parasites (3D7 strain (43)) were incubated with the inhibitors for 72 h and viability was assessed in […]
638 precipitated with acetonitrile and the remaining compound was assessed by LC-MS/MS in the selected reaction […]
648 0.5% formic acid in methanol and the supernatants were analysed by positive ion electrospray LC-MS for
649 the administered compound. Non-compartmental pharmacokinetic parameters were calculated from […]
660 IGM Genomics Center on the Illumina HiSeq 2500 in RapidRun mode to generate 100bp paired-end reads.

PfYRS = PfYRS (Plasmodium falciparum, UniProt Q8IAR7); assay: biochemical; format: binding; conditions: PfYRS incubated with ML901 in the presence of Tyr, ATP and tRNATyr
PfYRS, sequence (Q8IAR7 entry or part of it): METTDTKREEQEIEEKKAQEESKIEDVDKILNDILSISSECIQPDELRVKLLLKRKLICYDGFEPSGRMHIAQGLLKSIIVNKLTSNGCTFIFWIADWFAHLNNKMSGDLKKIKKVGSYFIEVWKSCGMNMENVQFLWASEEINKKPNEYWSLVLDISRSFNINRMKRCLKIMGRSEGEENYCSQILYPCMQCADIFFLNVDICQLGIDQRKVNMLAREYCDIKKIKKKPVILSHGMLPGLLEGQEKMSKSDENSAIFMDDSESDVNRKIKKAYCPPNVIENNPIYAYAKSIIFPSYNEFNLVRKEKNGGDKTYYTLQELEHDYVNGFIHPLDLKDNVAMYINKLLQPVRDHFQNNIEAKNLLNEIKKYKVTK
Method: 804 An intron was detected in the PftRNATyr sequence, that was not indicated in PlasmoDB. A T7 RNA
805 polymerase promoter sequence was added to the 5’ end of the DNA sequence of P. falciparum and H.
806 sapiens tRNATyr. This DNA template and its complementary strand were custom-synthesized by Sigma-
807 Aldrich. Two oligonucleotides were annealed at 95°C for 5 min and the double-stranded DNA template
808 was used for in vitro transcription. The transcription reaction was incubated at 37°C overnight. The reaction
809 mixture consists of template DNA, T7 RNA polymerase and NTP mix as per manufacturer's instructions
810 (HiScribe™ T7 Quick High Yield RNA Synthesis Kit, NEB). On the following day, the reaction mixture
811 was treated with DNase I at 37°C for 15 min. tRNA was purified using RNA clean-up spin columns
812 (Monarch® RNA Cleanup Kit, NEB) to remove contaminants from the transcription reaction.
814 Differential scanning fluorimetry (DSF)
815 PfYRS and HsYRS at 0.1 mg/ml were incubated with various substrates at 37°C for 1-3 h. PfYRS was
816 assayed in 25 mM Tris, pH 8, 150 mM NaCl, 5 mM MgCl2 and 1 mM TCEP. HsYRS was assayed in 50
817 mM Tris, pH 7.5, 150 mM NaCl, 50 mM KCl, 5 mM MgCl2 and 1 mM TCEP. SYPRO Orange (Sigma-
818 Aldrich; 5,000X concentrate in DMSO) was added to the reaction mixture at a final concentration of 2.5X.
819 25 µL of the sample was added into each well of a 96-well qPCR plate (Applied Biosystems). The plate
820 was sealed and analysed using StepOnePlus Real-Time PCR system (Applied Biosystems). The samples
821 were heated from 20°C to 90°C with a 1% continuous gradient. The thermal unfolding curve was plotted
822 as the first derivative curve of the raw fluorescence values. The melting temperature (Tm), defined as the
823 peak of the first derivative curve, was used to assess the thermal stability of protein-ligand complexes. KD
824 values were calculated from DTm using the equation: ln(KD/[L]) = -131.5 x (∆Tm/Tm,apo) - 1.9, where [L]
825 is the concentration of ligand and T is the temperature in Kelvin (40). […]

In the case of `Nc1ncnc2c1c(OC(F)F)nn2[C@@H]1O[C@H](COS(N)(=O)=O)[C@@H](O)[C@H]1O` [ML901], the IC50 [1] is reported as 13 ± 5 nM, the “reduced sensitivity of selected parasites” value ([2]; 3D7 line under increasing compound concentrations over 4 months, versus parent) is reported as 10 fold and the IC50 ([2]; Plasmodium falciparum, 3D7, read-out: IC50_72h, ML901-selected resistant clones) is reported as 28 nM. The “increase of apparent protein melting point (Tm)” value (PfYRS) was 15 °C.
